Columns and labels:
ABUTH [1] = test: Pre-emergence herbicidal action against ABUTH; assay type: in vivo, Abutilon theophrasti
Outline: (§1)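 Sandy loam pots, seeds covered with soil, then surface-treated with WP or EC formulations at 600–800 l/ha water plus 0.2% wetting agent. Greenhouse, 3 weeks. Percent damage vs untreated controls.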

ALOMY [2] = test: Pre-emergence herbicidal action against ALOMY; assay type: in vivo, Alopecurus myosuroides
Outline: as §1

AMARE [3] = test: Pre-emergence herbicidal action against AMARE; assay type: in vivo, Amaranthus retroflexus
Outline: as §1

AVEFA [4] = test: Pre-emergence herbicidal action against AVEFA; assay type: in vivo, Avena fatua
Outline: as §1

ECHCG [5] = test: Pre-emergence herbicidal action against ECHCG; assay type: in vivo, Echinochloa crus-galli
Outline: as §1

LOLRI = test: Pre-emergence herbicidal action against LOLRI; assay type: in vivo, Lolium rigidum; settings: 80 g/ha
Outline: as §1

MATIN [6] = test: Pre-emergence herbicidal action against MATIN; assay type: in vivo, Matricaria inodora
Outline: as §1

PHBPU [7] = test: Pre-emergence herbicidal action against PHBPU; assay type: in vivo, Pharbitis purpurea
Outline: as §1

POLCO [8] = test: Pre-emergence herbicidal action against POLCO; assay type: in vivo, Polygonum convolvulus; settings: dosage 80 g/ha
Outline: as §1

SETVI [9] = test: Pre-emergence herbicidal action against SETVI; assay type: in vivo, Setaria viridis
Outline: as §1

VIOTR [10] = test: Pre-emergence herbicidal action against VIOTR; assay type: in vivo, Viola tricolor
Outline: as §1

DIGSA [11] = test: Pre-emergence herbicidal action against DIGSA; assay type: in vivo, Digitaria sanguinalis
Outline: as §1

ABUTH [12] = test: Post-emergence herbicidal action against ABUTH; assay type: in vivo, Abutilon theophrasti; settings: visual assessment about 3 weeks after treatment vs untreated controls
Outline: (§2)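 Visual % rating (0% = as untreated, 100% = dead) ~3 wk after spraying one-leaf-stage plants grown in sandy loam; WP/EC in water at 600–800 l/ha, 0.2% wetting agent.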

ALOMY [13] = test: Post-emergence herbicidal action against ALOMY; assay type: in vivo, Alopecurus myosuroides; settings: visual assessment about 3 weeks after treatment vs untreated controls
Outline: as §2

AMARE [14] = test: Post-emergence herbicidal action against AMARE; assay type: in vivo, Amaranthus retroflexus; settings: 20 g/ha, visual assessment about 3 weeks after treatment, 100% = plants have died, 0% = like control plants
Outline: as §2

AVEFA [15] = test: Post-emergence herbicidal action against AVEFA; assay type: in vivo, Avena fatua; settings: 20 g/ha, visual assessment about 3 weeks after treatment, 100% = plants have died, 0% = like control plants
Outline: as §2

ECHCG [16] = test: Post-emergence herbicidal action against ECHCG; assay type: in vivo, Echinochloa crus-galli
Outline: as §2

PHBPU [17] = test: Post-emergence herbicidal action against PHBPU; assay type: in vivo, Pharbitis purpurea
Outline: as §2

POLCO [18] = test: Post-emergence herbicidal action against POLCO; assay type: in vivo, Polygonum convolvulus; settings: dosage 20 g/ha
Outline: as §2

SETVI [19] = test: Post-emergence herbicidal action against SETVI; assay type: in vivo, Setaria viridis
Outline: as §2

VERPE [20] = test: Post-emergence herbicidal action against VERPE; assay type: in vivo, Veronica persica
Outline: as §2

VIOTR [21] = test: Post-emergence herbicidal action against VIOTR; assay type: in vivo, Viola tricolor
Outline: as §2

DIGSA [22] = test: Post-emergence herbicidal action against DIGSA; assay type: in vivo, Digitaria sanguinalis
Outline: as §2

VERPE [23] = test: Pre-emergence herbicidal action against VERPE; assay type: in vivo, Veronica persica; settings: Veronica persica, 504 h
Outline: as §1

MATIN [24] = test: Post-emergence herbicidal action against MATIN; assay type: in vivo, Matricaria inodora; settings: Tripleurospermum inodorum, 504 h
Outline: as §2

[25] = 80 g/ha, scored visually after 3 weeks vs untreated controls (100% = plants have died, 0% = like control plants)
[26] = 20 g/ha, scored visually after 3 weeks, 100% = plants have died, 0% = like control plants
[27] = Ipomoea purpurea, 504 h, dosage 20 g/ha

Compound: Cn1nnnc1NC(=O)c1ccc(C(F)(F)F)c(C(=O)NCC(F)F)c1Br [Example 1-212]
- Pre-emergence action against ABUTH (herbicidal activity) (ABUTH [1]; [25]): 100%
- Pre-emergence action against ABUTH (herbicidal activity in percent) (ABUTH [1]; dosage 20 g/ha, scored visually after 3 weeks vs untreated controls, 100% = plants have died, 0% = like control plants): 80%
- Pre-emergence action against ALOMY (ALOMY [2]; [26]): 100%
- Pre-emergence action against ALOMY (herbicidal activity) (ALOMY [2]; 80 g/ha, pre-emergence, scored visually after 3 weeks vs untreated controls (100% = plants have died, 0% = like control plants)): 100%
- Pre-emergence action against AMARE in % (AMARE [3]; 20 g/ha, scored visually after 3 weeks vs untreated controls, 100% = plants have died, 0% = like control plants): 100%
- Pre-emergence action against AMARE in % (AMARE [3]; [25]): 100%
- Pre-emergence action against AVEFA (AVEFA [4]; [26]): 80%
- Pre-emergence action against AVEFA in % (AVEFA [4]; 80 g/ha, pre-emergence): 90%
- Pre-emergence action against ECHCG in % (ECHCG [5]; 80 g/ha): 100%
- Pre-emergence action against LOLRI in % (LOLRI): 80%
- Pre-emergence action against MATIN in % (MATIN [6]; dosage 20 g/ha): 90%
- Pre-emergence action against MATIN in % (MATIN [6]; dosage 80 g/ha): 100%
- Pre-emergence action against PHBPU in % (PHBPU [7]; dosage 20 g/ha): 80%
- Pre-emergence action against PHBPU in % (PHBPU [7]; dosage 80 g/ha): 80%
- Pre-emergence action against POLCO in % (POLCO [8]): 80%
- Pre-emergence action against SETVI in % (SETVI [9]; dosage 20 g/ha): 80%
- Pre-emergence action against SETVI in % (SETVI [9]; dosage 80 g/ha): 100%
- Pre-emergence action against VIOTR in % (VIOTR [10]; dosage 20 g/ha): 100%
- Pre-emergence action against VIOTR in % (VIOTR [10]; dosage 80 g/ha): 100%
- Pre-emergence action against DIGSA in % (DIGSA [11]; dosage 20 g/ha): 100%
- Pre-emergence action against DIGSA in % (DIGSA [11]; dosage 80 g/ha): 100%
- Post-emergence action against ABUTH in % (ABUTH [12]; dosage 20 g/ha): 80%
- Post-emergence action against ALOMY in % (ALOMY [13]; dosage 5 g/ha): 80%
- Post-emergence action against ALOMY in % (ALOMY [13]; dosage 20 g/ha): 90%
- Post-emergence action at 20 g/ha against AMARE in % (AMARE [14]): 100%
- Post-emergence action at 20 g/ha against AVEFA in % (AVEFA [15]): 80%
- Post-emergence action against ECHCG in % (ECHCG [16]; dosage 5 g/ha): 80%
- Post-emergence action against ECHCG in % (ECHCG [16]; dosage 20 g/ha): 80%
- Post-emergence action against PHBPU in % (PHBPU [17]; dosage 5 g/ha): 80%
- Post-emergence action against PHBPU in % (PHBPU [17]; dosage 20 g/ha): 90%
- Post-emergence action against POLCO in % (POLCO [18]): 100%
- Post-emergence action against SETVI in % (SETVI [19]; dosage 5 g/ha): 80%
- Post-emergence action against SETVI in % (SETVI [19]; dosage 20 g/ha): 90%
- Post-emergence action against VERPE in % (VERPE [20]; 20 g/ha): 80%
- Post-emergence action against VIOTR in % (VIOTR [21]; 5 g/ha): 80%
- Post-emergence action against VIOTR in % (VIOTR [21]; 20 g/ha): 90%
- Post-emergence action against DIGSA in % (DIGSA [22]; 5 g/ha): 90%
- Post-emergence action against DIGSA (DIGSA [22]; 20 g/ha): 100%

Compound: CCc1c(C(=O)Nc2nnnn2C)ccc(C(F)(F)F)c1C(=O)NC [Example 1-271]
- pest or weed control at 80 g/ha (ABUTH [1]; Abutilon theophrasti, 504 h, 80 g/ha, scored visually after 3 weeks vs untreated controls (100% = plants have died, 0% = like control plants)): 100%
- pest or weed control at 20 g/ha (ABUTH [1]; Abutilon theophrasti, 504 h, dosage 20 g/ha, scored visually after 3 weeks vs untreated controls, 100% = plants have died, 0% = like control plants, read-out: Pre-emergence action against ABUTH (herbicidal activity in percent)): 100%
- pest or weed control at 80 g/ha (ALOMY [2]; Alopecurus myosuroides, 504 h, 80 g/ha, pre-emergence, scored visually after 3 weeks vs untreated controls (100% = plants have died, 0% = like control plants)): 90%
- pest or weed control at 20 g/ha (AMARE [3]; Amaranthus retroflexus, 504 h, 20 g/ha, scored visually after 3 weeks vs untreated controls, 100% = plants have died, 0% = like control plants): 100%
- pest or weed control at 80 g/ha (AMARE [3]; Amaranthus retroflexus, 504 h, 80 g/ha, scored visually after 3 weeks vs untreated controls, 100% = plants have died, 0% = like control plants): 100%
- pest or weed control at 80 g/ha (AVEFA [4]; Avena fatua, 504 h, 80 g/ha, pre-emergence): 80%
- pest or weed control at 20 g/ha (ECHCG [5]; Echinochloa crus-galli, 504 h, 20 g/ha): 90%
- pest or weed control at 80 g/ha (ECHCG [5]; Echinochloa crus-galli, 504 h, 80 g/ha): 100%
- pest or weed control at 80 g/ha (LOLRI; Lolium rigidum, 504 h): 100%
- pest or weed control at 20 g/ha (MATIN [6]; Tripleurospermum inodorum, 504 h, dosage 20 g/ha): 100%
- pest or weed control at 80 g/ha (MATIN [6]; Tripleurospermum inodorum, 504 h, dosage 80 g/ha): 100%
- pest or weed control at 20 g/ha (PHBPU [7]; [27]): 80%
- pest or weed control at 80 g/ha (PHBPU [7]; Ipomoea purpurea, 504 h, dosage 80 g/ha): 90%
- pest or weed control at 80 g/ha (POLCO [8]; Fallopia convolvulus, 504 h): 80%
- pest or weed control at 80 g/ha (SETVI [9]; Setaria viridis, 504 h, dosage 80 g/ha): 100%
- pest or weed control at 20 g/ha (VERPE [23]; dosage 20 g/ha): 90%
- pest or weed control at 80 g/ha (VERPE [23]; dosage 80 g/ha): 100%
- pest or weed control at 20 g/ha (VIOTR [10]; Viola tricolor, 504 h, dosage 20 g/ha): 100%
- pest or weed control at 80 g/ha (VIOTR [10]; Viola tricolor, 504 h, dosage 80 g/ha): 100%
- pest or weed control at 20 g/ha (DIGSA [11]; Digitaria sanguinalis, 504 h, dosage 20 g/ha): 100%
- pest or weed control at 80 g/ha (DIGSA [11]; Digitaria sanguinalis, 504 h, dosage 80 g/ha): 100%
- pest or weed control at 5 g/ha (ABUTH [12]; Abutilon theophrasti, 504 h, dosage 5 g/ha): 80%
- pest or weed control at 20 g/ha (ABUTH [12]; Abutilon theophrasti, 504 h, dosage 20 g/ha): 90%
- pest or weed control at 5 g/ha (ALOMY [13]; Alopecurus myosuroides, 504 h, dosage 5 g/ha): 80%
- pest or weed control at 20 g/ha (ALOMY [13]; Alopecurus myosuroides, 504 h, dosage 20 g/ha): 90%
- pest or weed control at 20 g/ha (AMARE [14]; Amaranthus retroflexus, 504 h): 90%
- pest or weed control at 20 g/ha (AVEFA [15]; Avena fatua, 504 h): 80%
- pest or weed control at 5 g/ha (ECHCG [16]; Echinochloa crus-galli, 504 h, dosage 5 g/ha): 80%
- pest or weed control at 20 g/ha (ECHCG [16]; Echinochloa crus-galli, 504 h, dosage 20 g/ha): 80%
- pest or weed control at 5 g/ha (MATIN [24]; dosage 5 g/ha): 90%
- pest or weed control at 20 g/ha (MATIN [24]; dosage 20 g/ha): 90%
- pest or weed control at 20 g/ha (PHBPU [17]; [27]): 90%
- pest or weed control at 20 g/ha (POLCO [18]; Fallopia convolvulus, 504 h): 80%
- pest or weed control at 20 g/ha (SETVI [19]; Setaria viridis, 504 h, dosage 20 g/ha): 80%
- pest or weed control at 5 g/ha (VERPE [20]; Veronica persica, 504 h, 5 g/ha): 80%
- pest or weed control at 20 g/ha (VERPE [20]; Veronica persica, 504 h, 20 g/ha): 90%
- pest or weed control at 20 g/ha (VIOTR [21]; Viola tricolor, 504 h, 20 g/ha): 90%
- pest or weed control at 5 g/ha (DIGSA [22]; Digitaria sanguinalis, 504 h, 5 g/ha): 90%
- pest or weed control at 20 g/ha (DIGSA [22]; Digitaria sanguinalis, 504 h, 20 g/ha): 100%

Source: patent publication US12655116B2, “Substituted isophthalic acid diamides” (Bayer Aktiengesellschaft, priority 2020, dated 2026)
